Our source for the IC50, AC50 and GI50 values is patent US20250332173A1, “COMPOUNDS AND METHODS FOR MODULATING NUCLEIC ACID SPLICING” (REMIX THERAPEUTICS INC., priority 2021, published 2025).

Broadly, the IC50 is the point on the concentration scale where inhibition reaches its midpoint. A word on the AC50: it is the midpoint of the concentration-response curve, whichever way the signal moves. As usually defined, the GI50 is the concentration that inhibits growth by half.

In one experiment the test system is MYB. Briefly: HiBiT protein abundance assay, MYB HiBiT K562 cell line. As to conditions: HiBiT K562 cell line, 24 hours, top dose 10 μM; read-out: Effect on protein abundance, MYB (IC50 category). It is filed as cell-based, human. The method in brief: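 Tagged-protein abundance measured by split-NanoBiT luminescence after lysis, following 24 h compound exposure (37° C; 10 μM top, 3-fold, 10 points; DMSO ≤0.25%) of HiBiT knock-in K562 cells. Percent response vs DMSO and unmodified-cell controls; 4-parameter logistic interpolation at 50% gave IC50.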

A further experiment has as its system HTT mRNA. In words: RT-qPCR splicing assay, HTT canonical junction (CJ) and alternative junction (AJ) mRNA. It counts as cell-based, human. Particulars: Homo sapiens; for AC50: increase in HTT alternative junction (AJ) mRNA, read-out: HTT AJ AC50. In short, it runs like this: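 Read-out is one-step RT-qPCR on cell lysates detecting the exon-exon junction of each isoform, normalized to a housekeeping gene (PPIA in A673, GAPDH or GUSB in K562).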
(In general: In qPCR the cycle at which signal appears reflects the starting amount.)

For experiment [1], the system named is K562 (human chronic myelogenous leukemia) cells. In words: Cell Titer Glo 2.0 cell viability assay. It is filed as cell-based. As to conditions: Homo sapiens, K562, 72 h, K562 cells, 72 hours, Cell Titer Glo 2.0; read-out: K562 GI50. On the technique in general: In ATP-based viability assays light output follows the ATP content of the culture.
The mark [2] stands for this setting: decrease in HTT canonical junction (CJ) mRNA, RT-qPCR, read-out: HTT CJ IC50.
The mark [3] stands for this setting: Table 5 panel, canonical junction qPCR, compound concentration having 50% response in CJ decrease, read-out: HTT IC50 (decrease in CJ mRNA levels).

Molecules are shown by their SMILES. Like-named read-outs stand apart in the source and are kept apart here.

Take `Cc1cn2cc(-n3ccc4cc(N5C[C@@H](C)N[C@@H](C)C5)ccc4c3=O)nc(C)c2n1` [Compound 454, 2-{2,8-dimethylimidazo[1,2-a]pyrazin-6-yl}-6-[(3R,5S)-3,5-dimethylpiperazin-1-yl]isoquinolin-1-one]: the IC50 with MYB, with HTT mRNA (setting [2]) and with HTT mRNA (setting [3]) was above 10000 nM each time. Besides, in the experiment on HTT mRNA (RT-qPCR), the AC50 is above 10000 nM. The GI50 in experiment [1] was above 10000 nM.
Turning to `Cc1cn2cc(-c3ccc4c(=O)n([C@H]5CCNC5)cc(C)c4c3)cc(C#N)c2n1` [Compound 456, (S)-2-methyl-6-(4-methyl-1-oxo-2-(pyrrolidin-3-yl)-1,2-dihydroisoquinolin-6-yl)imidazo[1,2-a]pyridine-8-carbonitrile], the IC50 is 1000 to 10000 nM in the experiment on MYB, above 10000 nM in the experiment with HTT mRNA (setting [2]) and above 10000 nM with HTT mRNA (setting [3]). For the same compound, the AC50 in the experiment with HTT mRNA (RT-qPCR) was above 10000 nM. Moreover, in experiment [1], the GI50 was above 10000 nM.
Regarding `Cc1cn2cc(-c3cc(F)c4c(=O)n(C5CCNCC5)cc(C)c4c3)cc(F)c2n1` [Compound 461, 8-fluoro-6-{8-fluoro-2-methylimidazo[1,2-a]pyridin-6-yl}-4-methyl-2-(piperidin-4-yl)isoquinolin-1-one], the IC50 is below 100 nM in the experiment on MYB, 100 to 1000 nM with HTT mRNA (setting [2]) and 100 to 1000 nM in the experiment on HTT mRNA (setting [3]). Besides, the AC50 with HTT mRNA (RT-qPCR) is 100 to 1000 nM. Further, in experiment [1], the GI50 was below 100 nM.
Take `Cc1cn2nc(-c3cc(O)c4c(=O)n(C5CCNC5)cc(C)c4c3)cc(C)c2n1` (centres unmarked) [Compound 462]: the results for the IC50 in the experiment on MYB, in the experiment on HTT mRNA (setting [2]) and in the experiment on HTT mRNA (setting [3]) were 100 to 1000 nM, 1000 to 10000 nM and 1000 to 10000 nM, respectively. Moreover, the AC50 in the experiment on HTT mRNA (RT-qPCR) was in the range of 1000 to 10000 nM. The GI50 in experiment [1] lay in the range of 1000 to 10000 nM.
Take `Cn1cc2c(n1)CCN(c1ccc3c(=O)n(C4CCNCC4)ccc3c1)C2` [Compound 509, 6-{2-methyl-4H,6H,7H-pyrazolo[4,3-c]pyridin-5-yl}-2-(piperidin-4-yl)isoquinolin-1-one]: the IC50 in the experiment with MYB, in the experiment with HTT mRNA (setting [2]) and in the experiment on HTT mRNA (setting [3]) was above 10000 nM each time. In the experiment with HTT mRNA (RT-qPCR), the AC50 was above 10000 nM. For the same compound, the GI50 in experiment [1] is above 10000 nM.
In the case of `Cc1cn2cc(-c3ccc4c(=O)n(C5CCNC6(CC6)C5)ncc4c3)cc(Cl)c2n1` (centres unmarked) [Compound 510], the IC50 with MYB lay within 1000 to 10000 nM; with HTT mRNA (setting [2]), 1000 to 10000 nM; in the experiment with HTT mRNA (setting [3]), 100 to 1000 nM. Also, in the experiment with HTT mRNA (RT-qPCR), the AC50 lay within 100 to 1000 nM. Also, the GI50 in experiment [1] fell in the range of 1000 to 10000 nM.
In the case of `Cn1cc2nc(-c3ccc4c(=O)n(C5CCNC6(CC6)C5)ncc4c3)ccc2n1` (centres unmarked) [Compound 511], the IC50 in the experiment with MYB, with HTT mRNA (setting [2]) and in the experiment with HTT mRNA (setting [3]) was 100 to 1000 nM throughout. The AC50 in the experiment with HTT mRNA (RT-qPCR) lay in the range of 100 to 1000 nM. Moreover, the GI50 in experiment [1] was in the range of 1000 to 10000 nM.
